Test results as given in PubChem BioAssay AID1845209 (Molecular Pharmacology Branch, DTP, NCI, 2023).

Tested on: NCI-H211 tumor spheroids, viability percent test/control
Assay: Anticancer human tumor NCI-H211 cell line growth inhibition;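 further: spheroids exposed to agents for seven days before readout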
Conditions: spheroids with HUVEC and MSC; for IC50: curve of first compound; for viability, T/C: stronger effect = lower value; active means viability on the fitted dose curve at most 10% of control; inactive means the rest
Outline: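 Single agents and combinations were tested on spheroids built from tumor cells plus HUVEC and hMSC, at half-log dilutions starting at or near clinical Cmax, else 10 microM; final DMSO 0.25% (v/v).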

[1] = second compound 1 µM, first compound 0.00949 µM
[2] = second compound 1 µM, first compound 0.03 µM
[3] = second compound 1 µM, first compound 0.0949 µM
[4] = second compound 1 µM, first compound 0.3 µM
[5] = second compound 1 µM, first compound 0.949 µM
[6] = second compound 1 µM, first compound 3 µM
[7] = second compound 3.16 µM, first compound 0.00949 µM
[8] = second compound 3.16 µM, first compound 0.03 µM
[9] = second compound 3.16 µM, first compound 0.0949 µM
[10] = second compound 3.16 µM, first compound 0.3 µM
[11] = second compound 3.16 µM, first compound 0.949 µM
[12] = second compound 3.16 µM, first compound 3 µM
[13] = second compound 10 µM, first compound 0.00949 µM
[14] = second compound 10 µM, first compound 0.03 µM
[15] = second compound 10 µM, first compound 0.0949 µM
[16] = second compound 10 µM, first compound 0.3 µM
[17] = second compound 10 µM, first compound 0.949 µM
[18] = second compound 10 µM, first compound 3 µM
[19] = second compound 31.6 µM, first compound 0.00949 µM
[20] = second compound 31.6 µM, first compound 0.03 µM
[21] = second compound 31.6 µM, first compound 0.0949 µM
[22] = second compound 31.6 µM, first compound 0.3 µM
[23] = second compound 31.6 µM, first compound 0.949 µM
[24] = second compound 31.6 µM, first compound 3 µM
[25] = second compound 100 µM, first compound 0.00949 µM
[26] = second compound 100 µM, first compound 0.03 µM
[27] = second compound 100 µM, first compound 0.0949 µM
[28] = second compound 100 µM, first compound 0.3 µM
[29] = second compound 100 µM, first compound 0.949 µM
[30] = second compound 100 µM, first compound 3 µM

Cc1sc2c(c1C)C(c1ccc(Cl)cc1)=NC(CC(=O)Nc1ccc(O)cc1)c1nnc(C)n1-2 (stereo not given) + Cn1nnc2c(C(N)=O)ncn2c1=O
inactive: viability, T/C [1] 25.5% | viability, T/C [7] 36.7% | viability, T/C [13] 31.8% | viability, T/C [19] 22%
active: viability, T/C [2] 2.24% | viability, T/C [3] 0.88% | viability, T/C [4] 0.67% | viability, T/C [5] 0.78% | viability, T/C [6] 0.72% | viability, T/C [8] 3.37% | viability, T/C [9] 0.97% | viability, T/C [10] 0.76% | viability, T/C [11] 0.66% | viability, T/C [12] 0.82% | viability, T/C [14] 1.97% | viability, T/C [15] 1.15% | viability, T/C [16] 0.79% | viability, T/C [17] 0.76% | viability, T/C [18] 0.74% | viability, T/C [20] 1.97% | viability, T/C [21] 1.02% | viability, T/C [22] 0.79% | viability, T/C [23] 0.71% | viability, T/C [24] 0.82% | viability, T/C [25] 6.77% | viability, T/C [26] 1.61% | viability, T/C [27] 1.08% | viability, T/C [28] 1.09% | viability, T/C [29] 0.86% | viability, T/C [30] 1.03%
< 0.00949 µM: IC50 (second compound 1 µM) | IC50 (second compound 3.16 µM) | IC50 (second compound 10 µM) | IC50 (second compound 31.6 µM) | IC50 (second compound 100 µM)

[2H]c1nc(C)nc([2H])c1-c1cc(NC[C@@H](C)c2cccc3c(C(=O)NC)ccnc23)ncn1 + Cn1nnc2c(C(N)=O)ncn2c1=O
active: viability, T/C (second compound 100 µM, first compound 10 µM) 8.11%
inactive: viability, T/C (second compound 1 µM, first compound 0.0316 µM) 97.9% | viability, T/C (second compound 1 µM, first compound 0.1 µM) 96.7% | viability, T/C (second compound 1 µM, first compound 0.316 µM) 93.5% | viability, T/C (second compound 1 µM, first compound 1 µM) 95% | viability, T/C (second compound 1 µM, first compound 3.16 µM) 101% | viability, T/C (second compound 1 µM, first compound 10 µM) 88.9% | viability, T/C (second compound 3.16 µM, first compound 0.0316 µM) 108% | viability, T/C (second compound 3.16 µM, first compound 0.1 µM) 113% | viability, T/C (second compound 3.16 µM, first compound 0.316 µM) 98.7% | viability, T/C (second compound 3.16 µM, first compound 1 µM) 99.7% | viability, T/C (second compound 3.16 µM, first compound 3.16 µM) 95.3% | viability, T/C (second compound 3.16 µM, first compound 10 µM) 103% | viability, T/C (second compound 10 µM, first compound 0.0316 µM) 106% | viability, T/C (second compound 10 µM, first compound 0.1 µM) 105% | viability, T/C (second compound 10 µM, first compound 0.316 µM) 85.5% | viability, T/C (second compound 10 µM, first compound 1 µM) 103% | viability, T/C (second compound 10 µM, first compound 3.16 µM) 65% | viability, T/C (second compound 10 µM, first compound 10 µM) 82.6% | viability, T/C (second compound 31.6 µM, first compound 0.0316 µM) 61.5% | viability, T/C (second compound 31.6 µM, first compound 0.1 µM) 53.1% | viability, T/C (second compound 31.6 µM, first compound 0.316 µM) 49.8% | viability, T/C (second compound 31.6 µM, first compound 1 µM) 47.5% | viability, T/C (second compound 31.6 µM, first compound 3.16 µM) 51.6% | viability, T/C (second compound 31.6 µM, first compound 10 µM) 18.4% | viability, T/C (second compound 100 µM, first compound 0.0316 µM) 33% | viability, T/C (second compound 100 µM, first compound 0.1 µM) 21.6% | viability, T/C (second compound 100 µM, first compound 0.316 µM) 15.9% | viability, T/C (second compound 100 µM, first compound 1 µM) 13.6% | viability, T/C (second compound 100 µM, first compound 3.16 µM) 11.7%
< 0.0316 µM: IC50 (second compound 100 µM)
3.3 µM: IC50 (second compound 31.6 µM)
> 10 µM: IC50 (second compound 1 µM) | IC50 (second compound 3.16 µM) | IC50 (second compound 10 µM)

CNCc1ccc(-c2cc(-c3nc(-c4ccc(S(=O)(=O)C(C)C)cc4)cnc3N)on2)cc1 + Cn1nnc2c(C(N)=O)ncn2c1=O
0.0115 µM: IC50 (second compound 1 µM)
0.0197 µM: IC50 (second compound 3.16 µM)
0.0168 µM: IC50 (second compound 10 µM)
< 0.00949 µM: IC50 (second compound 31.6 µM) | IC50 (second compound 100 µM)
inactive: viability, T/C [1] 53% | viability, T/C [2] 35.3% | viability, T/C [7] 71% | viability, T/C [8] 37.9% | viability, T/C [13] 66.9% | viability, T/C [14] 32.9% | viability, T/C [19] 34% | viability, T/C [25] 11%
active: viability, T/C [3] 6.53% | viability, T/C [4] 1.07% | viability, T/C [5] 0.07% | viability, T/C [6] 0.11% | viability, T/C [9] 7.5% | viability, T/C [10] 0.64% | viability, T/C [11] 0.13% | viability, T/C [12] 0.1% | viability, T/C [15] 6.3% | viability, T/C [16] 0.72% | viability, T/C [17] 0.13% | viability, T/C [18] 0.13% | viability, T/C [20] 9.23% | viability, T/C [21] 2.14% | viability, T/C [22] 1.16% | viability, T/C [23] 0.14% | viability, T/C [24] 0.14% | viability, T/C [26] 2.34% | viability, T/C [27] 1.63% | viability, T/C [28] 1.21% | viability, T/C [29] 0.17% | viability, T/C [30] 0.23%
